From patent US20050287114A1, “Water-soluble polymeric bone-targeting drug delivery system” (University of Utah Research Foundation, priority 2003, published 2005)

Experiments:
[1] = in vitro bone-targeting capacity: binding of conjugates to hydroxyapatite; settings: conjugate 1 mg/mL in phosphate buffered saline, 5 mg HA, 1 h at R.T., UV absorbance of supernatant
Experimental: Conjugates were dissolved in phosphate buffered saline to give a concentration of 1 mg/mL. The conjugate solution (100 μL) and 100 μL of the same buffer were incubated with 5 mg of hydroxyapatite (HA, Bio-Gel HTP, DNA grade; BIO-RAD, Hercules, Calif.) for 1 h at R.T. The solution was then centrifuged. The UV absorbance at certain wavelengths (FITC, 490 nm; 9-Gly-ATC, 450 nm) of the supernatant was monitored with an ELISA plate reader. Background correction was applied. The data presented is the average of three samples. The binding efficiency is expressed as the percentage of conjugates bound to HA (FIG. 4).

[2] = water solubility of lyophilized product; assay type: physicochemical
Experimental: TC was first transformed into anhydrotetracycline; an amino group was then introduced into the D ring. Stoel, L. et al.(1976) J. Pharm. Sci. 65, 1794-1799; Menachery, M. D. & Cava, M. P. (1984) Can. J. Chem. 62, 2583-2584. Because of the low activity of the aromatic amine, a glycine was coupled to the D ring of the TC molecule in order to introduce a more reactive primary amine by the following procedure. Boc-glycine (192.7 mg, 1.1 mmol), 9-NH2-ATC (514 mg, 1 mmol) and methyl morpholine (MM, 220 μL, 2 mmol) were dissolved in DMF (8 mL) and stirred at 0° C. for 1 h. DCC (227 mg, 1.1 mmol, in 2 mL DCM) was added to the solution and stirred for 1 h. The temperature of the solution was then raised to R.T. and stirred overnight. The resulting suspension was filtered. The solid (product and DCU) was washed three times with ethyl acetate and dried under vacuum. The Boc protection was removed with TFA. DCU was removed to yield 360 mg of 9-Gly-ATC (lyophilized), which is water-soluble.

binding to HA (percentage of conjugates bound to HA) [1]: slightly lower values
water solubility [2]: water-soluble
Compound: Cc1c2c(c(O)c3c(O)c(NC(=O)CN)ccc13)C(=O)C1(O)C(=O)C(C(N)=O)=C(O)C(N(C)C)C1C2 (centres unmarked) [9-Gly-ATC, N-(9-aminoanhydrotetracycline)glycyl amide]
